{"source": "patent US20190060249A1", "about": "(priority 2017, published 2019)", "key": {"[1]": {"molecular_target": "T1, ALDH1A2 (Homo sapiens, UniProt O94788)", "T1 sequence (O94788 1-518)": "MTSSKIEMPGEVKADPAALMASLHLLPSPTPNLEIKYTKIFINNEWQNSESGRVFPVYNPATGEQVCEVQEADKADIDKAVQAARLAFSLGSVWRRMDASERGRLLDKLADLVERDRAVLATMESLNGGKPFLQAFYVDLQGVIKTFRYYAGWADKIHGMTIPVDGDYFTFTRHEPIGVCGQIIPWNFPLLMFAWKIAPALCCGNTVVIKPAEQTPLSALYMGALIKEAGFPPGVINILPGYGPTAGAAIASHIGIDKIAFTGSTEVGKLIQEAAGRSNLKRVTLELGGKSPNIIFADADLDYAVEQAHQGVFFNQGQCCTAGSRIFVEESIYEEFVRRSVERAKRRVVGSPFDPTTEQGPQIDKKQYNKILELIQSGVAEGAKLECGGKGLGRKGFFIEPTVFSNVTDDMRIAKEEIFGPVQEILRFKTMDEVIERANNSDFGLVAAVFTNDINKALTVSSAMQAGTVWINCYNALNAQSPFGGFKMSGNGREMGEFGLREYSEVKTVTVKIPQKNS", "assay": "ALDH fluorescence-coupled enzymatic assay, all-trans-retinal substrate, ALDH1A2", "assay_type": "biochemical", "experimental": "Assay conditions were modified from the original enzyme assay protocol above using 50 mM NaPPi buffer (pH 7.4), 2.5 mM NAD^+, 10 mM acetaldehyde or all-trans-retinal substrate with the addition of 1 U/mL diaphorase and 0.1 mM resazurin for the secondary reaction. Measurements were collected in triplicate at 25° C."}, "[2]": {"tested_on": "mouse WT EpCAM+/CD24+-sorted cells", "assay": "Salisphere formation assay, mouse", "assay_type": "cell-based", "conditions": "25 μM Alda-341 over 7 days", "experimental": "Salisphere formation assay: Cells isolated from mouse submandibular glands (SMG) were FACS sorted using cell surface markers EpCAM and CD24 as previously described and seeded on matrigel (BD Biosciences, BD356235). Cells were grown in DMEM/F12+GlutaMax (Gibco, 10565-018) media containing 10% FBS, 1× anti-anti, 1% N2 supplement (Gibco), 20 ng/mL […] (Sigma-Aldrich), 20 ng/mL fibroblast growth factor-2 (Sigma-Aldrich), 10 μg/mL insulin (Sigma-Aldrich), 1 μM dexamethasone (Sigma-Aldrich), 10 μM […] (Stem Cell Technologies). Spheres were passaged every 7 days by dissociating into single cells by incubating in 1 mg/mL dispase (BD Biosciences) for 20 minutes and 0.25% trypsin-EDTA for 20 minutes. Spheres were grown for 7 days and imaged with a BZ-X710 Keyence microscope using the z-stack function. Images were stitched together into a single image and analyzed using ImageJ (NIH) to quantify sphere number and area. Experiments were repeated at least 3 independent times.\nSphere number per well quantified by Image J (NIH). 6 replicates per group."}, "[3]": {"tested_on": "murine WT EpCAM+/CD24+-sorted cells", "assay": "Annexin V assay", "assay_type": "cell-based, mouse", "conditions": "100 μM Alda-341; Annexin V and propidium iodide, FACS", "experimental": "Annexin V^+PI^+ are interpreted as late apoptotic cells and appear in the upper right quadrant. 5-6 replicates per group.\nCells were dissociated from matrigel, stained with Biolegend's FITC Annexin V Apoptosis Detection Kit with Propidium Iodide ([…]), and analyzed by flow cytometry. Annexin V^+PI^− cells were analyzed as early apoptotic cells and Annexin V^+PI^+ cells were analyzed as late apoptotic cells. Five to six replicates per group were assayed."}, "[4]": {"tested_on": "E13.5 embryonic SMG epithelia", "assay": "Embryonic epithelial rudiment cultures", "assay_type": "cell-based, mouse", "source_text": "Embryonic epithelial rudiment cultures: Epithelia and mesenchyme were separated using dispase treatment and mechanical dissection and cultured in a drop of laminin on a nucleopore filter over serum-free DMEM/F12 containing holotransferrin and ascorbic acid (complete media) as described for the E13 submandibular gland (Steinberg, Z., Myers, C., Heim, V. M., Lathrop, C. A., Rebustini, I. T., Stewart, J. S., Larsen, M., and Hoffman, M. P. (2005) FGFR2b signaling regulates ex vivo submandibular gland epithelial cell proliferation and branching morphogenesis. Development (Cambridge, England) 132, 1223-1234). Epithelia were cultured with 400 ng/ml FGF10 (R&D Systems) and 0.5 μl/ml heparin sulfate (Sigma Aldrich) in the presence or absence of 25-200 μM ALDH341 or vehicle (PEG) and were subjected to RNA isolation or fixed for immunostaining after 24-48 h.\nN=6-7 epithelia per group.\n[…] confocal section of all three markers (top) and averaged confocal sections of c-KIT only (bottom).\nSamples were tested in triplicate.\nImmunohistochemistry: Embryonic rudiment immunofluorescence analysis has been previously described in, Knox, S. M., Lombaert, I. M., Reed, X., Vitale-Cross, L., Gutkind, J. S., and Hoffman, M. P. (2010) Parasympathetic innervation maintains epithelial progenitor cells during salivary organogenesis. Science (New York, N.Y.) 329, 1645-1647. In brief, tissue was fixed with 4% PFA for 20-30 min followed by permeabilizing with 0.1-0.3% Triton-X. Tissue was blocked overnight at 4° C. with 10% Donkey Serum (Jackson Laboratories), 1% BSA (Sigma Aldrich), and MOM IgG-blocking reagent (Vector Laboratories) in 0.01% PBS-Tween-20. SGs were incubated with primary antibodies overnight at 4° C.: rabbit anti-cKIT (1:200, Santa Cruz Biotech, M14), and rat anti-E-cadherin (1:300, Life Technologies, 13-1900). Antibodies were detected using Cy2-, Cy3- or Cy5-conjugated secondary Fab fragment antibodies (Jackson Laboratories) and nuclei stained using Hoescht 33342 (1:1000, Sigma Aldrich). Fluorescence was analyzed using a Leica Sp5 confocal microscope and NIH ImageJ software.\nqPCR: RNA was isolated from whole tissue using RNAqueous Micro Kit (Ambion). Total RNA samples were DNase-treated (Ambion), prior to cDNA synthesis using SuperScript reagents (Invitrogen). SYBRgreen qPCR was performed using 1 ng of cDNA and primers designed using Primer3 and Beacon Designer software or found using PrimerBank (http://pga.mgh.harvard.edu/primerbank/). Melt-curves and primer efficiency were determined as previously described (Hoffman, M. P., Kidder, B. L., Steinberg, Z. L., Lakhani, S., Ho, S., Kleinman, H K., and Larsen, M. (2002) Gene expression profiles of mouse submandibular gland development: FGFR1 regulates branching morphogenesis in vitro through BMP- and FGF-dependent mechanisms. Development (Cambridge, England) 129, 5767-5778). Gene expression was normalized to the housekeeping gene S29 (Rps29)."}, "[5]": {"conditions": "200 μM Alda-341, RT-qPCR vs vehicle control"}}}
{"smiles": "C=C(C)[C@H]1CC=C(C)CC1", "note": "[Alda-341, D-limonene]", "values": [{"measurement": "catalytic activity of all trans-retinal in ALDH1A2", "setting": "[1]", "value": "did not increase"}, {"measurement": "increase in total salisphere number compared to vehicle control", "setting": "[2]", "value": "~15", "unit": "%"}, {"measurement": "fewer early and late apoptotic cells compared to vehicle control", "setting": "[3]", "value": "about 60%"}, {"measurement": "localisation of c-Kit+ cells (immunofluorescence)", "setting": "[4]; 200 μM Alda-341, 24 h", "value": "limited to the end buds only"}, {"measurement": "expression of acinar progenitor marker Sox10", "setting": "[4]; [5]", "value": "Increased expression"}, {"measurement": "transcript level of acinar maturation marker Aqp5", "setting": "[4]; [5]", "value": "increased transcript levels"}, {"measurement": "transcript level of acinar maturation marker Mist1", "setting": "[4]; [5]", "value": "increased transcript levels"}, {"measurement": "number of end buds", "setting": "[4]; cultured 24 h, 100 μM and 200 μM Alda-341", "value": "dose-dependent increase"}, {"measurement": "epithelial area", "setting": "[4]; cultured 24 h, 100 μM and 200 μM Alda-341, normalized to vehicle control", "value": "dose-dependent increase"}]}
